Data taken from the NIST ThermoML archive (doi:10.1016/j.jct.2018.08.013).
Several values for one entry are separate records, joined by “and”; a condition that tells them apart may be missing. Identical values can stand only once. ± gives the expanded uncertainty stated by the source.

Assays:
[1] = xn = mol fraction of the nth substance listed; conditions: 298 K; 100 kPa; Crystal of intercomponent compound 1; X-ray diffraction; x2 = 0.501
[2] = specific heat capacity at constant pressure; xn = mol fraction of the nth substance listed; conditions: 100 kPa, Crystal of intercomponent compound 1, x2 = 0.501

[Se] [selenium] + [Ga]
Conditions | mass density [kg/m3]
[1] | 4995 ± 33

[2]
Conditions | specific heat capacity
16.15 K, relaxation calorimetry | 11.99 ± 0.98 J/K/kg
16.17 K, relaxation calorimetry | 12 ± 0.98 J/K/kg
18.16 K, relaxation calorimetry | 16.65 ± 1.2 J/K/kg and 16.64 ± 1.2 J/K/kg
18.18 K, relaxation calorimetry | 16.69 ± 1.2 J/K/kg
20.17 K, relaxation calorimetry | 21.87 ± 1.4 J/K/kg
20.18 K, relaxation calorimetry | 21.87 ± 1.4 J/K/kg
20.19 K, relaxation calorimetry | 21.91 ± 1.4 J/K/kg
22.2 K, relaxation calorimetry | 27.43 ± 1.6 J/K/kg and 27.5 ± 1.6 J/K/kg
22.21 K, relaxation calorimetry | 27.42 ± 1.6 J/K/kg
24.22 K, relaxation calorimetry | 33.32 ± 1.8 J/K/kg and 33.29 ± 1.8 J/K/kg
24.23 K, relaxation calorimetry | 33.28 ± 1.8 J/K/kg
26.23 K, relaxation calorimetry | 39.37 ± 2 J/K/kg and 39.38 ± 2 J/K/kg
26.24 K, relaxation calorimetry | 39.4 ± 2 J/K/kg
28.25 K, relaxation calorimetry | 45.37 ± 2.2 J/K/kg and 45.38 ± 2.2 J/K/kg and 45.39 ± 2.2 J/K/kg
30.27 K, relaxation calorimetry | 51.28 ± 2.4 J/K/kg and 51.24 ± 2.4 J/K/kg
30.28 K, relaxation calorimetry | 51.39 ± 2.4 J/K/kg
35.31 K, relaxation calorimetry | 66.34 ± 2.9 J/K/kg and 66.36 ± 2.9 J/K/kg and 66.53 ± 2.9 J/K/kg
40.35 K, relaxation calorimetry | 80.84 ± 3.5 J/K/kg and 80.98 ± 3.5 J/K/kg and 81.11 ± 3.5 J/K/kg
45.38 K, relaxation calorimetry | 95.31 ± 4 J/K/kg
45.39 K, relaxation calorimetry | 94.97 ± 4 J/K/kg
45.4 K, relaxation calorimetry | 95.04 ± 4 J/K/kg
50.4 K, relaxation calorimetry | 109.56 ± 4.6 J/K/kg
50.42 K, relaxation calorimetry | 108.96 ± 4.6 J/K/kg
50.44 K, relaxation calorimetry | 108.89 ± 4.6 J/K/kg
55.43 K, relaxation calorimetry | 122.81 ± 5.1 J/K/kg
55.45 K, relaxation calorimetry | 122.01 ± 5 J/K/kg
55.49 K, relaxation calorimetry | 122.14 ± 5 J/K/kg
60.46 K, relaxation calorimetry | 135.73 ± 5.6 J/K/kg
60.49 K, relaxation calorimetry | 134.99 ± 5.6 J/K/kg
60.52 K, relaxation calorimetry | 134.92 ± 5.6 J/K/kg
65.48 K, relaxation calorimetry | 148.37 ± 6.1 J/K/kg
65.53 K, relaxation calorimetry | 147.43 ± 6.1 J/K/kg
65.58 K, relaxation calorimetry | 147.3 ± 6.1 J/K/kg
70.5 K, relaxation calorimetry | 160.95 ± 6.6 J/K/kg
70.57 K, relaxation calorimetry | 159.6 ± 6.6 J/K/kg
70.63 K, relaxation calorimetry | 159.47 ± 6.5 J/K/kg
75.53 K, relaxation calorimetry | 172.38 ± 7.1 J/K/kg
75.61 K, relaxation calorimetry | 170.97 ± 7 J/K/kg
75.66 K, relaxation calorimetry | 170.77 ± 7 J/K/kg
80.55 K, relaxation calorimetry | 184.09 ± 7.5 J/K/kg
80.66 K, relaxation calorimetry | 182.27 ± 7.5 J/K/kg
80.7 K, relaxation calorimetry | 182.34 ± 7.5 J/K/kg
85.57 K, relaxation calorimetry | 194.78 ± 7.9 J/K/kg
85.7 K, relaxation calorimetry | 192.56 ± 7.9 J/K/kg
85.74 K, relaxation calorimetry | 192.9 ± 7.9 J/K/kg
90.59 K, relaxation calorimetry | 204.73 ± 8.3 J/K/kg
90.72 K, relaxation calorimetry | 202.45 ± 8.3 J/K/kg
90.78 K, relaxation calorimetry | 202.18 ± 8.3 J/K/kg
95.61 K, relaxation calorimetry | 213.21 ± 8.7 J/K/kg
95.73 K, relaxation calorimetry | 211.33 ± 8.6 J/K/kg
95.82 K, relaxation calorimetry | 210.32 ± 8.5 J/K/kg
100.79 K, relaxation calorimetry | 218.86 ± 8.9 J/K/kg and 218.59 ± 8.9 J/K/kg
100.93 K, relaxation calorimetry | 219.87 ± 8.9 J/K/kg
105.73 K, relaxation calorimetry | 227.87 ± 9.3 J/K/kg
105.8 K, relaxation calorimetry | 226.59 ± 9.2 J/K/kg
105.86 K, relaxation calorimetry | 225.85 ± 9.2 J/K/kg
113.65 K, relaxation calorimetry | 238.83 ± 9.7 J/K/kg
113.74 K, relaxation calorimetry | 237.36 ± 9.7 J/K/kg
113.8 K, relaxation calorimetry | 236.08 ± 9.6 J/K/kg
121.58 K, relaxation calorimetry | 248.59 ± 10 J/K/kg
121.67 K, relaxation calorimetry | 246.97 ± 10 J/K/kg
121.74 K, relaxation calorimetry | 245.83 ± 10 J/K/kg
129.51 K, relaxation calorimetry | 257.33 ± 10 J/K/kg
129.61 K, relaxation calorimetry | 255.45 ± 10 J/K/kg
129.66 K, relaxation calorimetry | 254.51 ± 10 J/K/kg
137.44 K, relaxation calorimetry | 264.59 ± 11 J/K/kg
137.56 K, relaxation calorimetry | 262.58 ± 11 J/K/kg and 263.32 ± 11 J/K/kg
145.45 K, relaxation calorimetry | 269.91 ± 11 J/K/kg
145.46 K, relaxation calorimetry | 268.03 ± 11 J/K/kg
145.47 K, relaxation calorimetry | 269.1 ± 11 J/K/kg
153.32 K, relaxation calorimetry | 274.68 ± 11 J/K/kg
153.34 K, relaxation calorimetry | 275.63 ± 11 J/K/kg
153.36 K, relaxation calorimetry | 275.49 ± 11 J/K/kg
161.23 K, relaxation calorimetry | 282.15 ± 11 J/K/kg
161.3 K, relaxation calorimetry | 279.06 ± 11 J/K/kg
161.31 K, relaxation calorimetry | 280.6 ± 11 J/K/kg
169.16 K, relaxation calorimetry | 286.18 ± 12 J/K/kg
169.22 K, relaxation calorimetry | 285.24 ± 12 J/K/kg and 284.23 ± 12 J/K/kg
177.11 K, relaxation calorimetry | 290.02 ± 12 J/K/kg
177.12 K, relaxation calorimetry | 289.62 ± 12 J/K/kg and 289.08 ± 12 J/K/kg
185.02 K, relaxation calorimetry | 293.18 ± 12 J/K/kg
185.03 K, relaxation calorimetry | 293.58 ± 12 J/K/kg
185.05 K, relaxation calorimetry | 293.38 ± 12 J/K/kg
192.93 K, relaxation calorimetry | 296.41 ± 12 J/K/kg
192.95 K, relaxation calorimetry | 296.68 ± 12 J/K/kg
192.96 K, relaxation calorimetry | 296.81 ± 12 J/K/kg
200.83 K, relaxation calorimetry | 299.5 ± 12 J/K/kg
200.86 K, relaxation calorimetry | 299.77 ± 12 J/K/kg
200.88 K, relaxation calorimetry | 299.7 ± 12 J/K/kg
208.74 K, relaxation calorimetry | 302.93 ± 12 J/K/kg
208.76 K, relaxation calorimetry | 303 ± 12 J/K/kg
208.8 K, relaxation calorimetry | 302.6 ± 12 J/K/kg
216.62 K, relaxation calorimetry | 305.29 ± 12 J/K/kg
216.66 K, relaxation calorimetry | 304.88 ± 12 J/K/kg
216.71 K, relaxation calorimetry | 304.61 ± 12 J/K/kg
224.53 K, relaxation calorimetry | 308.38 ± 13 J/K/kg
224.58 K, relaxation calorimetry | 307.71 ± 13 J/K/kg
224.64 K, relaxation calorimetry | 307.17 ± 13 J/K/kg
232.41 K, relaxation calorimetry | 310.8 ± 13 J/K/kg
232.48 K, relaxation calorimetry | 309.86 ± 13 J/K/kg
232.56 K, relaxation calorimetry | 309.05 ± 13 J/K/kg
240.31 K, relaxation calorimetry | 311.88 ± 13 J/K/kg
240.39 K, relaxation calorimetry | 310.67 ± 13 J/K/kg
240.46 K, relaxation calorimetry | 310.2 ± 13 J/K/kg
248.21 K, relaxation calorimetry | 312.89 ± 13 J/K/kg
248.3 K, relaxation calorimetry | 312.15 ± 13 J/K/kg
248.37 K, relaxation calorimetry | 311.47 ± 13 J/K/kg
256.11 K, relaxation calorimetry | 314.1 ± 13 J/K/kg
256.21 K, relaxation calorimetry | 313.22 ± 13 J/K/kg
256.27 K, relaxation calorimetry | 312.68 ± 13 J/K/kg
262.02 K, Extra sensitive DSC | 315.04 ± 12 J/K/kg
264.01 K, relaxation calorimetry | 314.5 ± 13 J/K/kg
264.11 K, relaxation calorimetry | 313.9 ± 13 J/K/kg
264.17 K, relaxation calorimetry | 313.42 ± 13 J/K/kg
265 K, Extra sensitive DSC | 315.24 ± 12 J/K/kg
270 K, Extra sensitive DSC | 315.51 ± 12 J/K/kg
271.91 K, relaxation calorimetry | 315.31 ± 13 J/K/kg
272.02 K, relaxation calorimetry | 314.5 ± 13 J/K/kg
272.07 K, relaxation calorimetry | 314.3 ± 13 J/K/kg
275 K, Extra sensitive DSC | 316.52 ± 12 J/K/kg
279.81 K, relaxation calorimetry | 318.13 ± 13 J/K/kg
279.92 K, relaxation calorimetry | 317.12 ± 13 J/K/kg
279.96 K, relaxation calorimetry | 317.06 ± 13 J/K/kg
280 K, Extra sensitive DSC | 317.19 ± 12 J/K/kg
285 K, Extra sensitive DSC | 318.2 ± 12 J/K/kg
290 K, Extra sensitive DSC | 319.21 ± 12 J/K/kg
295 K, Extra sensitive DSC | 319.95 ± 12 J/K/kg
299.68 K, Extra sensitive DSC | 320.55 ± 12 J/K/kg
307 K, Extra sensitive DSC | 321.29 ± 12 J/K/kg
310 K, Extra sensitive DSC | 322.03 ± 12 J/K/kg
315 K, Extra sensitive DSC | 322.3 ± 13 J/K/kg
320 K, Extra sensitive DSC | 322.91 ± 13 J/K/kg
325 K, Extra sensitive DSC | 323.65 ± 13 J/K/kg
330 K, Extra sensitive DSC | 324.52 ± 13 J/K/kg
335 K, Extra sensitive DSC | 325.93 ± 13 J/K/kg
340 K, Extra sensitive DSC | 325.93 ± 13 J/K/kg
345 K, Extra sensitive DSC | 326.94 ± 13 J/K/kg
350 K, Extra sensitive DSC | 328.02 ± 13 J/K/kg
354.61 K, Extra sensitive DSC | 329.03 ± 13 J/K/kg
358.6 K, Extra sensitive DSC | 328.76 ± 13 J/K/kg
